Measurements published in patent US9708336B2, “Metallo-beta-lactamase inhibitors” (priority 2014, dated 2017).
pIC50: −log10 of the molar value. Where two headings read alike, the source gives them in different places.

How the values were obtained:
VIM-1 = VIM-1 (Pseudomonas aeruginosa (strain ATCC 15692 / DSM 22644 / CIP 104116 / JCM 14847 / LMG 12228 / 1C / PRS 101 / PAO1), UniProt A0A0F7KYQ8); assay: Enzyme activity: determination of IC50, fluorescence assay with CCF2-FA substrate (VIM-1); type: biochemical
IMP-1 = IMP-1 (Serratia marcescens, UniProt P52699); assay: biochemical; type: biochemical; settings: IMP-1 enzyme, read-out: IMP-1 IC50
IMP-1, sequence (P52699 whole entry, looked up): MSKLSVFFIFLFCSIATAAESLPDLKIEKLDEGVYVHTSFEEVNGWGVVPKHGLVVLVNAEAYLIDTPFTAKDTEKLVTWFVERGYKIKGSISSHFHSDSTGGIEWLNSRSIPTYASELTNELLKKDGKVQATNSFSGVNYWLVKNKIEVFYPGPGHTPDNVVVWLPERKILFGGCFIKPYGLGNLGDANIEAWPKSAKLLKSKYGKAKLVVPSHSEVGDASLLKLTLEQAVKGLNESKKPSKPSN

NDM-1 = NDM-1 (Klebsiella pneumoniae, UniProt C7C422); assay: biochemical; type: biochemical; settings: NDM-1 enzyme, read-out: NDM-1 IC50
NDM-1, sequence (C7C422 whole entry, looked up, species assumed): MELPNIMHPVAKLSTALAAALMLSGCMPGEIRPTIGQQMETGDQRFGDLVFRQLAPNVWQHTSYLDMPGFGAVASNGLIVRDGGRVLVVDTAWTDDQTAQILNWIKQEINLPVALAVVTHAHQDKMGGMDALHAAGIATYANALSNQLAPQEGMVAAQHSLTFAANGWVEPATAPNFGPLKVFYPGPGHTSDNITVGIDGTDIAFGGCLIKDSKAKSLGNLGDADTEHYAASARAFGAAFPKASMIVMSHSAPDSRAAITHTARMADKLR

[1] = system: Klebsiella pneumoniae expressing VIM-1 (IHMA599644); assay: Antibiotic potentiation activity: synergistic concentration (MITC95) with imipenem, OD600 growth; type: cell-based; settings: 95% growth inhibition
Procedure, shortened: (§1)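 Bacteria were grown overnight on agar at 35 °C, diluted 1:100 from saline into 1.1× CAMHB, then given compound with or without imipenem (4 μg/ml in assay, optionally 1 μg/ml). Endpoint: absorbance at 22–24 h.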

[2] = system: Serratia marcescens expressing IMP-1 (CL5741); assay: as above; type: cell-based; settings: 95% growth inhibition
Procedure, shortened: as §1

[3] = system: Escherichia coli expressing NDM-1 (CLB30016); assay: as above; type: cell-based; settings: 95% growth inhibition
Procedure, shortened: as §1

[4] = Klebsiella pneumoniae expressing VIM-1 (IHMA599644)
[5] = Serratia marcescens expressing IMP-1 (CL5741)
[6] = Escherichia coli expressing NDM-1 (CLB30016)
[7] = VIM-1 enzyme, CCF2-FA fluorescence assay, read-out: VIM-1 IC50
[8] = VIM-1 enzyme, CCF2-FA substrate, read-out: VIM-1 IC50
[9] = Klebsiella pneumoniae IHMA599644 (VIM-1)
[10] = Serratia marcescens CL5741 (IMP-1)

| SMILES | pIC50 (VIM-1; VIM-1 IC50, VIM-1 enzyme, CCF2-FA fluorescence assay) | pIC50 (IMP-1; CCF2-FA fluorescence assay) | pIC50 (NDM-1; CCF2-FA fluorescence assay) | Klebsiella pneumoniae MITC95 [1, 4] [µM] | Serratia marcescens MITC95 [2, 5] [µM] | Escherichia coli MITC95 [3, 6] [µM] | pIC50 (VIM-1; [7]) | pIC50 (VIM-1; [8]) | pIC50 (IMP-1; CCF2-FA substrate) | pIC50 (NDM-1; CCF2-FA substrate) | Klebsiella pneumoniae MITC95 [1, 9] [µM] | Serratia marcescens MITC95 [2, 10] [µM] | Escherichia coli MITC95 ([3]; (CLB30016, NDM-1)) [µM] |
| --- | --- | --- | --- | --- | --- | --- | --- | --- | --- | --- | --- | --- | --- |
| Nc1ncc(-c2ccc(C(F)(F)F)c(S(N)(=O)=O)c2-c2nnn[nH]2)cn1 [Example 475, 3-(2-aminopyrimidin-5-yl)-2-(1H-tetrazol-5-yl)-6-(trifluoromethyl)benzenesulfonamide] | 8.72 | 7.86 | 8.29 | 3.125 | 0.7813 | 0.7813 | – | – | – | – | – | – | – |
| Nc1ncc(-c2ccc(C(F)(F)F)c(S(N)(=O)=O)c2-c2nnn[nH]2)cc1F [Example 476, 3-(6-amino-5-fluoro-3-pyridyl)-2-(1H-tetrazol-5-yl)-6-(trifluoromethyl)benzenesulfonamide] | – | 8.40 | 8.75 | 1.563 | 0.5859 | 1.563 | 9.58 | – | – | – | – | – | – |
| Nc1n[nH]c2cc(-c3ccc(C(F)(F)F)c(S(N)(=O)=O)c3-c3nnn[nH]3)ccc12 [Example 477, 3-(3-amino-1H-indazol-6-yl)-2-(1H-tetrazol-5-yl)-6-(trifluoromethyl)benzenesulfonamide] | – | 8.20 | 9.00 | 6.25 | 0.5859 | 0.7813 | 9.14 | – | – | – | – | – | – |
| Nc1ccnc2cc(-c3ccc(C(F)(F)F)c(S(N)(=O)=O)c3-c3nnn[nH]3)ccc12 [Example 478, 3-(4-amino-7-quinolyl)-2-(1-tetrazol-5-yl)-6-(trifluoromethyl)benzenesulfonamide] | – | 7.06 | 7.61 | 0.7813 | 2.344 | 0.7813 | 9.19 | – | – | – | – | – | – |
| Nc1ccnc2ccc(-c3ccc(C(F)(F)F)c(S(N)(=O)=O)c3-c3nnn[nH]3)cc12 [Example 479, 3-(4-amino-6-quinolyl)-2-(1H-tetrazol-5-yl)-6-(trifluoromethyl)benzenesulfonamide] | – | 7.52 | 8.18 | 0.7813 | 1.563 | 0.3906 | 9.43 | – | – | – | – | – | – |
| Nc1n[nH]c2ccc(-c3ccc(C(F)(F)F)c(S(N)(=O)=O)c3-c3nnn[nH]3)cc12 [Example 480, 3-(3-amino-1H-indazol-5-yl)-2-(1H-tetrazol-5-yl)-6-(trifluoromethyl)benzenesulfonamide] | – | 8.04 | 9.06 | 2.344 | 0.7813 | 0.7813 | 9.58 | – | – | – | – | – | – |
| N=C(N)c1nc2c(-c3ccc(C(F)(F)F)c(S(N)(=O)=O)c3-c3nnn[nH]3)cccc2s1 [Example 482, 4-(3-Sulfamoyl-2-(1H-tetrazol-5-yl)-4-(trifluoromethyl)phenyl)benzo[d]thiazole-2-carboximidamide] | – | 8.14 | 9.05 | 3.125 | 3.125 | 1.563 | 9.71 | – | – | – | – | – | – |
| N#Cc1nc2c(-c3ccc(C(F)(F)F)c(S(N)(=O)=O)c3-c3nnn[nH]3)cccc2s1 [Example 483, 3-(2-Cyanobenzo[d]thiazol-4-yl)-2-(1H-tetrazol-5-yl)-6-(trifluoromethyl)benzenesulfonamide] | – | 8.67 | 9.12 | 12.5 | 25 | 6.25 | 9.66 | – | – | – | – | – | – |
| NS(=O)(=O)c1c(C(F)(F)F)ccc(-c2cccn3cncc23)c1-c1nnn[nH]1 [Example 485, 3-(Imidazo[1,5-a]pyridin-8-yl)-2-(1H-tetrazol-5-yl)-6-(trifluoromethyl)benzenesulfonamide] | – | 8.30 | 8.80 | 6.25 | 12.5 | 3.125 | 9.71 | – | – | – | – | – | – |
| NS(=O)(=O)c1c(C(F)(F)F)ccc(-c2cccc3ncccc23)c1-c1nn[nH]n1 [Example 486, 3-(Quinolin-5-yl)-2-(2H-tetrazol-5-yl)-6-(trifluoromethyl)benzenesulfonamide] | – | 8.92 | 9.72 | 4.531 | 0.1367 | 1.208 | 9.87 | – | – | – | – | – | – |
| Cc1ccc(C(F)(F)F)c(S(N)(=O)=O)c1-c1nnn[nH]1 [Example 487, 3-methyl-2-(1H-tetrazol-5-yl)-6-(trifluoromethyl)benzenesulfonamide] | – | 7.25 | 6.99 | 25 | 1.563 | 1.563 | 7.15 | – | – | – | – | – | – |
| CC(C)c1ccc(C(F)(F)F)c(S(N)(=O)=O)c1-c1nnn[nH]1 [Example 488, 3-isopropyl-2-(1H-tetrazol-5-yl)-6-(trifluoromethyl)benzenesulfonamide] | – | 7.73 | 8.10 | 4.688 | 0.7813 | 1.563 | 8.46 | – | – | – | – | – | – |
| NS(=O)(=O)c1c(C(F)(F)F)ccc(C2CC2)c1-c1nnn[nH]1 [Example 489, 3-cyclopropyl-2-(1H-tetrazol-5-yl)-6-(trifluoromethyl)benzenesulfonamide] | – | 7.68 | 7.71 | 9.375 | 0.7813 | 1.563 | 8.01 | – | – | – | – | – | – |
| NS(=O)(=O)c1c(C(F)(F)F)ccc(C2CCCC2)c1-c1nnn[nH]1 [Example 490, 3-cyclopentyl-2-(1H-tetrazol-5-yl)-6-(trifluoromethyl)benzenesulfonamide] | – | 8.25 | 8.59 | 9.375 | 0.375 | 1.281 | 8.63 | – | – | – | – | – | – |
| NS(=O)(=O)c1c(C(F)(F)F)ccc(C2CCCCC2)c1-c1nnn[nH]1 [Example 491, 3-cyclohexyl-2-(1H-tetrazol-5-yl)-6-(trifluoromethyl)benzenesulfonamide] | – | – | – | – | – | – | – | 9.30 | 8.96 | 9.36 | 3.792 | 0.0625 | 0.6406 |
| NS(=O)(=O)c1c(C(F)(F)F)ccc(C2CCNc3ccccc32)c1-c1nnn[nH]1 (stereo not drawn) [Example 493, 3-(1,2,3,4-Tetrahydroquinolin-4-yl)-2-(1H-tetrazol-5-yl)-6-(trifluoromethyl)benzenesulfonamide] | – | – | – | – | – | – | – | 9.88 | 8.35 | 8.77 | 3.125 | 0.3906 | 1.563 |
| NS(=O)(=O)c1c(C(F)(F)F)ccc(C2CCn3cncc3C2)c1-c1nnn[nH]1 (stereo not drawn) [Example 494, 3-(5,6,7,8-Tetrahydroimidazo[1,5-a]pyridin-7-yl)-2-(1H-tetrazol-5-yl)-6-(trifluoromethyl)benzenesulfonamide] | – | – | – | – | – | – | – | 9.37 | 7.89 | 8.35 | 1.563 | 1.172 | 0.3906 |
